# From US9981960B2, “Pyrrolidine compound and application as melanocortin receptor agonist” (MITSUBISHI TANABE PHARMA CORPORATION, priority 2014, dated 2018)
# Target: T1, Human MC1R (Homo sapiens, UniProt Q01726)
# T1 construct: endogenous in cells; host or cells: human melanoma cell line HBL
# Experiment: MCR agonist measurement (cAMP measurement), human MC1R agonist activity in human melanoma cell line HBL
# Assay type: cell-based
# Conditions: HBL cells, 37° C. for 30 minutes, intracellular cAMP by fluorescence method
# Experimental: (1) Method for Culturing Cells
# Human MC1R agonist activity measurement was carried out by using human melanoma cell line HBL. Culture of HBL: F-10 Nutrient Mixture containing 10% FCS and Penicillin-streptomycin was used in the culture.
# (2) cAMP Assay and Data Calculation
# Each compound solution having each concentration was mixed with cAMP assay buffer (HBSS (Hank's Balanced Salt Solution) containing 10 mM HEPES and 0.1% BSA), and dispensed into 96 well plate. HBL was suspended in cAMP assay buffer containing 0.5 mM IBMX so that the concentrate became 5×10^4/mL, dispensed into the above 96 well plate, then mixed, left to stand at 37° C. for 30 minutes, and then the intracellular […] concentration was measured by fluorescence method using Envision (ex. 320 nm, em. 590 nm and 665 nm).
# T1 sequence (Q01726 whole entry): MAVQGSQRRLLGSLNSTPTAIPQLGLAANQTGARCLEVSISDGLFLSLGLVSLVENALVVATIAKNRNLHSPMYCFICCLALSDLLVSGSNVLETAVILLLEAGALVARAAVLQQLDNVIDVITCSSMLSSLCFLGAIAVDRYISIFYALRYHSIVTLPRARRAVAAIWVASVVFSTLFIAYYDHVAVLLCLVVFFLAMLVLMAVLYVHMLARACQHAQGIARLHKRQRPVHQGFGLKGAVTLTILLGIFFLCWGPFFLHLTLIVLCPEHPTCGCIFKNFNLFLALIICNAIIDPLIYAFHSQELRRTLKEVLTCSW
row,EC50,Structure (SMILES)
1,11 nM,COC[C@H]1CN(C(=O)[C@]2(F)CN(C3CCCC3)C[C@H]2c2ccc(OC)cc2)C[C@@H]1c1ccc(OC(F)(F)F)cc1N1CCC(C(=O)O)CC1 [Example 130]
2,0.45 nM,COC[C@@H]1C[C@@H](c2ccc(C(F)(F)F)cc2N2CCC(C(=O)O)CC2)CN1C(=O)[C@]1(F)CN(C2CCCC2)C[C@H]1c1ccc(OC)cc1 [Example 134]
3,0.47 nM,COC[C@@H]1C[C@@H](c2ccc(C(F)(F)F)cc2N2CCC(C(=O)O)CC2)CN1C(=O)[C@]1(F)CN([C@H]2CC[C@H](OC)CC2)C[C@H]1c1ccc(OC)cc1 [Example 135]
4,7.3 nM,COC[C@@H]1C[C@@H](c2ccc(C(F)(F)F)cc2N2CCC(C(=O)O)CC2)CN1C(=O)[C@]1(F)CN(C2CCOCC2)C[C@H]1c1ccc(OC)cc1 [Example 137]
5,0.98 nM,COC[C@@H]1C[C@@H](c2ccc(C(F)(F)F)cc2N2CCC(C(=O)O)CC2)CN1C(=O)[C@]1(F)CN(C2CCCCC2)C[C@H]1c1ccc(OC)cc1 [Example 138]
6,0.8 nM,COC[C@@H]1C[C@@H](c2ccc(C(F)(F)F)cc2N2CCC(C(=O)O)CC2)CN1C(=O)[C@]1(F)CN(C2CCC2)C[C@H]1c1ccc(OC)cc1 [Example 139]

# Further lines, the compound ahead of its results:
row,Structure (SMILES),EC50
1,COc1ccc([C@@H]2CN(C(C)(C)C)C[C@@]2(F)C(=O)N2CCC(c3ccc(C(F)(F)F)cc3N3C[C@@H]4[C@H](C3)[C@H]4C(=O)O)CC2)cc1 [Example 94],49 nM
2,COC[C@H]1CN(C(=O)[C@]2(F)CN(C3CCOCC3)C[C@H]2c2ccc(OC)cc2)C[C@@H]1c1ccc(C(F)(F)F)cc1N1CCC(C(=O)O)CC1 [Example 95],12 nM
3,COc1ccc([C@@H]2CN([C@H]3CC[C@H](OC)CC3)C[C@@]2(F)C(=O)N2CCC(c3ccc(C(F)(F)F)cc3N3CCC(C(=O)O)CC3)CC2)cc1 [Example 98],15 nM
4,COC[C@H]1CN(C(=O)[C@]2(F)CN([C@H]3CC[C@H](OC)CC3)C[C@H]2c2ccc(OC)cc2)C[C@@H]1c1ccc(C(F)(F)F)cc1N1CCC(C(=O)O)CC1 [Example 99],4.7 nM
5,COc1ccc([C@@H]2CN(C3CCCC3)C[C@@]2(F)C(=O)N2C[C@H](c3ccc(F)cc3N3CCC(C(=O)O)CC3)[C@@H](C)C2)cc1 [Example 100],9.7 nM
6,COC[C@H]1CN(C(=O)[C@]2(F)CN([C@H]3CC[C@H](OC)CC3)C[C@H]2c2ccc(OC)cc2)C[C@@H]1c1ccc(C(F)(F)F)cc1N1CCC(C)(C(=O)O)CC1 [Example 103],14 nM
7,COC[C@@H]1C[C@@H](c2ccc(Cl)cc2N2CCC(C(=O)O)CC2)CN1C(=O)[C@]1(F)CN([C@H]2CC[C@H](OC)CC2)C[C@H]1c1ccc(OC)cc1 [Example 111],5.9 nM
8,COC[C@@H]1C[C@@H](c2ccc(C(F)(F)F)cc2N(C)CCCC(=O)O)CN1C(=O)[C@]1(F)CN([C@H]2CC[C@H](OC)CC2)C[C@H]1c1ccc(OC)cc1 [Example 115],11 nM
9,CCO[C@H]1CC[C@@H](N2C[C@@H](c3ccc(OC)cc3)[C@](F)(C(=O)N3C[C@H](COC)[C@@H](c4ccc(C(F)(F)F)cc4N4CCC(C(=O)O)CC4)C3)C2)CC1 [Example 119],15 nM
10,COC[C@@]1(F)CN(C(=O)[C@]2(F)CN([C@H]3CC[C@H](OC)CC3)C[C@H]2c2ccc(OC)cc2)C[C@@H]1c1ccc(C(F)(F)F)cc1N1CCC(C(=O)O)CC1 [Example 120],8.8 nM
11,COC[C@H]1CN(C(=O)[C@]2(OC)CN(C3CCCC3)C[C@H]2c2ccc(OC)cc2)C[C@@H]1c1ccc(C(F)(F)F)cc1N1CCC(C(=O)O)CC1 [Example 125],24 nM
12,CCO[C@H]1CC[C@H](N2C[C@@H](c3ccc(OC)cc3)[C@](OC)(C(=O)N3C[C@H](COC)[C@@H](c4ccc(C(F)(F)F)cc4N4CCC(C(=O)O)CC4)C3)C2)CC1 [Example 140],4.1 nM
13,CCO[C@H]1CC[C@H](N2C[C@@H](c3ccc(OC)cc3)[C@](OC)(C(=O)N3C[C@H](c4ccc(C(F)(F)F)cc4N4CCC(C(=O)O)CC4)[C@@](F)(COC)C3)C2)CC1 [Example 141],3.6 nM

# Same assay, conditions: Intrinsic Activity; vehicle cAMP = 0%, αMSH at 10^-6 M = 100%; HBL cells
row,Human MC1R IA %,Structure (SMILES)
1,88%,COC[C@H]1CN(C(=O)[C@]2(F)CN(C3CCCC3)C[C@H]2c2ccc(OC)cc2)C[C@@H]1c1ccc(C(F)(F)F)cc1N1CCC(C(=O)O)CC1 [Example 19]
2,86%,COc1ccc([C@@H]2CN(C3CCCC3)C[C@@]2(F)C(=O)N2C[C@H](c3ccc(C(F)(F)F)cc3N3CCC(C(=O)O)CC3)C[C@H]2CC#N)cc1 [Example 105]
3,76%,COC[C@H]1CN(C(=O)[C@]2(F)CN(C3CCCC3)C[C@H]2c2ccc(OC)cc2)C[C@@H]1c1ccc(OC(F)(F)F)cc1N1CCC(C(=O)O)CC1 [Example 130]
4,96%,COC[C@@H]1C[C@@H](c2ccc(C(F)(F)F)cc2N2CCC(C(=O)O)CC2)CN1C(=O)[C@]1(F)CN(C2CCCC2)C[C@H]1c1ccc(OC)cc1 [Example 134]
5,96%,COC[C@@H]1C[C@@H](c2ccc(C(F)(F)F)cc2N2CCC(C(=O)O)CC2)CN1C(=O)[C@]1(F)CN([C@H]2CC[C@H](OC)CC2)C[C@H]1c1ccc(OC)cc1 [Example 135]
6,106%,COC[C@@H]1C[C@@H](c2ccc(C(F)(F)F)cc2N2CCC(C(=O)O)CC2)CN1C(=O)[C@]1(F)CN(C2CCOCC2)C[C@H]1c1ccc(OC)cc1 [Example 137]
7,111%,COC[C@@H]1C[C@@H](c2ccc(C(F)(F)F)cc2N2CCC(C(=O)O)CC2)CN1C(=O)[C@]1(F)CN(C2CCCCC2)C[C@H]1c1ccc(OC)cc1 [Example 138]
8,80%,COC[C@@H]1C[C@@H](c2ccc(C(F)(F)F)cc2N2CCC(C(=O)O)CC2)CN1C(=O)[C@]1(F)CN(C2CCC2)C[C@H]1c1ccc(OC)cc1 [Example 139]

# Further lines, the compound ahead of its results:
row,Structure (SMILES),Human MC1R IA %
1,COc1ccc([C@@H]2CN(C(C)(C)C)C[C@@]2(F)C(=O)N2CCC(c3ccc(C(F)(F)F)cc3N3C[C@@H]4[C@H](C3)[C@H]4C(=O)O)CC2)cc1 [Example 94],83%
2,COC[C@H]1CN(C(=O)[C@]2(F)CN(C3CCOCC3)C[C@H]2c2ccc(OC)cc2)C[C@@H]1c1ccc(C(F)(F)F)cc1N1CCC(C(=O)O)CC1 [Example 95],72%
3,COc1ccc([C@@H]2CN([C@H]3CC[C@H](OC)CC3)C[C@@]2(F)C(=O)N2CCC(c3ccc(C(F)(F)F)cc3N3CCC(C(=O)O)CC3)CC2)cc1 [Example 98],89%
4,COC[C@H]1CN(C(=O)[C@]2(F)CN([C@H]3CC[C@H](OC)CC3)C[C@H]2c2ccc(OC)cc2)C[C@@H]1c1ccc(C(F)(F)F)cc1N1CCC(C(=O)O)CC1 [Example 99],117%
5,COc1ccc([C@@H]2CN(C3CCCC3)C[C@@]2(F)C(=O)N2C[C@H](c3ccc(F)cc3N3CCC(C(=O)O)CC3)[C@@H](C)C2)cc1 [Example 100],90%
6,COC[C@H]1CN(C(=O)[C@]2(F)CN([C@H]3CC[C@H](OC)CC3)C[C@H]2c2ccc(OC)cc2)C[C@@H]1c1ccc(C(F)(F)F)cc1N1CCC(C)(C(=O)O)CC1 [Example 103],102%
7,COC[C@@H]1C[C@@H](c2ccc(Cl)cc2N2CCC(C(=O)O)CC2)CN1C(=O)[C@]1(F)CN([C@H]2CC[C@H](OC)CC2)C[C@H]1c1ccc(OC)cc1 [Example 111],83%
8,COC[C@@H]1C[C@@H](c2ccc(C(F)(F)F)cc2N(C)CCCC(=O)O)CN1C(=O)[C@]1(F)CN([C@H]2CC[C@H](OC)CC2)C[C@H]1c1ccc(OC)cc1 [Example 115],85%
9,CCO[C@H]1CC[C@@H](N2C[C@@H](c3ccc(OC)cc3)[C@](F)(C(=O)N3C[C@H](COC)[C@@H](c4ccc(C(F)(F)F)cc4N4CCC(C(=O)O)CC4)C3)C2)CC1 [Example 119],53%
10,COC[C@@]1(F)CN(C(=O)[C@]2(F)CN([C@H]3CC[C@H](OC)CC3)C[C@H]2c2ccc(OC)cc2)C[C@@H]1c1ccc(C(F)(F)F)cc1N1CCC(C(=O)O)CC1 [Example 120],109%
11,COC[C@H]1CN(C(=O)[C@]2(OC)CN(C3CCCC3)C[C@H]2c2ccc(OC)cc2)C[C@@H]1c1ccc(C(F)(F)F)cc1N1CCC(C(=O)O)CC1 [Example 125],74%
12,CCO[C@H]1CC[C@H](N2C[C@@H](c3ccc(OC)cc3)[C@](OC)(C(=O)N3C[C@H](COC)[C@@H](c4ccc(C(F)(F)F)cc4N4CCC(C(=O)O)CC4)C3)C2)CC1 [Example 140],98%
13,CCO[C@H]1CC[C@H](N2C[C@@H](c3ccc(OC)cc3)[C@](OC)(C(=O)N3C[C@H](c4ccc(C(F)(F)F)cc4N4CCC(C(=O)O)CC4)[C@@](F)(COC)C3)C2)CC1 [Example 141],105%
